The results in this text go back to patent US10359701B2, “Material for forming underlayer film for lithography, composition for forming underlayer film for lithography, underlayer film for lithography and pattern forming method” (Mitsubishi Gas Chemical Company, Inc., priority 2015, dated 2019).

Structures are written as SMILES. A value given as a limit tells only on which side of the number the result lay.

The nature of data set [1]: Thermogravimetric measurement (TG) of the synthesized compound. The format is physicochemical.
The nature of data set [2]: Solubility: amount of compound dissolved in PGMEA at 23° C.
Description: The amount of the compound dissolved in propylene glycol monomethyl ether acetate (PGMEA) was measured at 23° C., and the results were evaluated according to the following criteria.
Evaluation A: 10% by mass or more
Evaluation B: less than 10% by mass

With `N#COc1ccc(-c2ccc(OC#N)c(C(c3ccc(-c4ccccc4)cc3)c3cc(-c4ccc(OC#N)cc4)ccc3OC#N)c2)cc1` [BiF-CN, bis(4,4′-cyanatobiphenyl) biphenylmethane], in data set [1], the “20% thermal weight loss temperature” value is at least 400 °C. Besides, in data set [2], the “solubility in PGMEA” value is at least 10 % by mass and the “solubility in PGMEA (Evaluation)” value is on record as “A (10% by mass or more)”.

Turning to `N#COc1ccc(C(c2ccccc2)c2ccc(OC#N)cc2)cc1` [B-CN, bis(4-cyanatophenyl)phenylmethane], the “20% thermal weight loss temperature” value in data set [1] was at least 400 °C. For the same molecule, in data set [2], the “solubility in PGMEA” value was at least 10 % by mass and the “solubility in PGMEA (Evaluation)” value is “A (10% by mass or more)”.
